Values joined by “and” are separate entries in the source; they are usually repeats but may differ in a detail not shown here. Equal entries are not always repeated.
T1: Pyrococcus horikoshii biotin protein ligase (PhBPL) (Pyrococcus horikoshii, UniProt O57883)
T1 sequence (O57883 1-235): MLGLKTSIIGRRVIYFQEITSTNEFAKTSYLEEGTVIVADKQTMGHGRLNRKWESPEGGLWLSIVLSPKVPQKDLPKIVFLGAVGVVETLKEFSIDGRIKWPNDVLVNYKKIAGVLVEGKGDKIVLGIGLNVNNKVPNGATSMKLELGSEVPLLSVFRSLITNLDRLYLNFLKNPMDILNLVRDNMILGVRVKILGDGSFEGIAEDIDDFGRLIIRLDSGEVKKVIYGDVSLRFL


Assays:
[1] = molecular target: T1, Pyrococcus horikoshii biotin protein ligase (PhBPL); assay: Steady state fluorescence titration of PhBPL with ligand; type: binding; conditions: for blue shift of emission maximum / quenching of intrinsic protein fluorescence: saturating ligand
E. coli BPL = conditions: bio-5′-AMP synthesis; cited from earlier work
[2] = molecular target: T1, Pyrococcus horikoshii biotin protein ligase (PhBPL); assay: Isothermal titration calorimetry of PhBPL with biotin; type: binding
AUC = molecular target: the molecule itself; assay: AUC
[3] = KD, 20°C, Standard Buffer pH 7.5
[4] = KD, 30°C, Standard Buffer pH 7.5
[5] = KD, 40°C, Standard Buffer pH 7.5
[6] = KD, 50°C, Standard Buffer pH 7.5

Row | Molecule | Kd [1, 3] [µM] | Kd [1, 4] [µM] | Kd [1, 5] [µM] | Kd [1, 6] [µM] | blue shift of emission maximum [1] | quenching of intrinsic protein fluorescence [1] [%] | other results
1 | Nc1ncnc2c1ncn2C1OC(COP(=O)(O)CP(=O)(O)OP(=O)(O)O)C(O)C1O (stereo not drawn) [AMPCPP, α,β-methyleneadenosine 5′-triphosphate] | – | – | – | – | – | – | Kd ([1]; 20°C, Standard Buffer pH 7.5): 150 µM; Kd ([1]; 20°C, titrated into PhBPL saturated with biotin): 140 µM; ΔG° ([1]; 20°C, titrated into PhBPL saturated with biotin, ΔG°= RTlnKD): -5.1 ± 0.1 kcal/mol
2 | Nc1ncnc2c1ncn2[C@@H]1O[C@H](COP(=O)(O)OP(=O)(O)OP(=O)(O)O)[C@@H](O)[C@H]1O [ATP, adenosine 5′-triphosphate] | 240 | 290 | 300 | 430 | approximately 5 nm | 60 | Km (E. coli BPL): ~3000 µM; Kd ([1]; KD, temperature range of 20-50°C): 200 to 400 µM; binding enthalpy (van’t Hoff analysis) ([1]; titrations from 20 to 50°C): -3.5 ± 1.5 kcal/mol
3 | O=C(O)CCCC[C@@H]1SC[C@@H]2NC(=O)N[C@@H]21 [Biotin, d-biotin] | 0.2 | 0.2 | 0.51 | 0.39 | approximately 5 nm | 30 | equilibrium association constant by ITC ([2]; 20°C, direct titration): identical to that measured by fluorescence titrations; heat capacity change ([2]; temperature-dependence of binding by ITC): 5±14 cal/mole·K; Kd ([1]; KD, 10°C, Standard Buffer pH 7.5): 0.12 µM; increase of equilibrium dissociation constant with temperature ([1]; from 10°C to 50°C): approximately four fold; enthalpy of binding (van’t Hoff analysis) ([1]; titrations from 10 to 50°C): -4.4 ± 0.2 kcal/mol and -4.4 kcal/mol
4 | Pyrococcus horikoshii Biotin Protein Ligase (enzyme) MLGLKTSIIGRRVIYFQEITSTNEFAKTSYLEEGTVIVADKQTMGHGRLNRKWESPEGGLWLSIVLSPKVPQKDLPKIVFLGAVGVVETLKEFSIDGRIKWPNDVLVNYKKIAGVLVEGKGDKIVLGIGLNVNNKVPNGATSMKLELGSEVPLLSVFRSLITNLDRLYLNFLKNPMDILNLVRDNMILGVRVKILGDGSFEGIAEDIDDFGRLIIRLDSGEVKKVIYGDVSLRFL | – | – | – | – | – | – | stoichiometry N (AUC): 2

From paper PMC3126109 (Biochemistry, 2010)
